Test results from publication PMC6576746, “Rational discovery of dual-indication multi-target PDE/Kinase inhibitor for precision anti-cancer therapy using structural systems pharmacology” (PLoS Computational Biology, 2019).

Tests used:
Experiment in all cases: biochemical
Design in all cases: DiscoverX KinomeScan competition binding assay across human kinases; per cent of control at 10 and 100 uM
[1] = molecular target: T1, ABL1(E255K)-phosphorylated (Homo sapiens, UniProt P00519, E255K); conditions: competition binding, % of control
T1 construct: phosphorylated
Outline: (§1)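 KinomeScan competition binding was run across a human kinase panel at 10 μM and 100 μM levosimendan. Results are %control = (test − positive control)/(negative control − positive control) × 100.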

INSR = INSR (Homo sapiens, UniProt P06213); conditions: competition binding, % of control; read-out: Percent Control (100 uM Levosimendan)
Outline: as §1

MAP4K3 = MAP4K3 (Homo sapiens, UniProt Q8IVH8); conditions: competition binding, % of control; read-out: Percent Control (100 uM Levosimendan)
Outline: as §1

YSK4 = molecular target: T2, YSK4 (Homo sapiens, UniProt Q56UN5); conditions: competition binding, % of control
T2 construct: gene MAP3K19
Outline: as §1

CSNK2A2 = CSNK2A2 (Homo sapiens, UniProt P19784); conditions: competition binding, % of control; read-out: Percent Control (100 uM Levosimendan)
Outline: as §1

FGFR1 = FGFR1 (Homo sapiens, UniProt P11362); conditions: competition binding, % of control
Outline: as §1

SGK2 = SGK2 (Homo sapiens, UniProt Q9HBY8); conditions: competition binding, % of control; read-out: Percent Control (100 uM Levosimendan)
Outline: as §1

WNK3 = WNK3 (Homo sapiens, UniProt Q9BYP7); conditions: competition binding, % of control; read-out: Percent Control (100 uM Levosimendan)
Outline: as §1

ERK4 = molecular target: T3, ERK4 (Homo sapiens, UniProt P31152); conditions: competition binding, % of control; read-out: Percent Control (100 uM Levosimendan)
T3 construct: gene MAPK4
Outline: as §1

MKNK2 = MKNK2 (Homo sapiens, UniProt Q9HBH9); conditions: competition binding, % of control
Outline: as §1

CAMK2B = CAMK2B (Homo sapiens, UniProt Q13554); conditions: competition binding, % of control; read-out: Percent Control (100 uM Levosimendan)
Outline: as §1

CLK3 = CLK3 (Homo sapiens, UniProt P49761); conditions: competition binding, % of control; read-out: Percent Control (100 uM Levosimendan)
Outline: as §1

PYK2 = molecular target: T4, PYK2 (Homo sapiens, UniProt Q14289); conditions: competition binding, % of control; read-out: Percent Control (100 uM Levosimendan)
T4 construct: gene PTK2B
Outline: as §1

MST4 = molecular target: T5, MST4 (Homo sapiens, UniProt Q9P289); conditions: competition binding, % of control; read-out: Percent Control (100 uM Levosimendan)
T5 construct: gene STK26
Outline: as §1

CAMK1B = molecular target: T6, CAMK1B (Homo sapiens, UniProt Q6P2M8); conditions: competition binding, % of control; read-out: Percent Control (100 uM Levosimendan)
T6 construct: gene PNCK
Outline: as §1

TGFBR2 = TGFBR2 (Homo sapiens, UniProt P37173); conditions: competition binding, % of control; read-out: Percent Control (100 uM Levosimendan)
Outline: as §1

AKT3 = AKT3 (Homo sapiens, UniProt Q9Y243); conditions: competition binding, % of control
Outline: as §1

CDK3 = CDK3 (Homo sapiens, UniProt Q00526); conditions: competition binding, % of control; read-out: Percent Control (100 uM Levosimendan)
Outline: as §1

ULK3 = ULK3 (Homo sapiens, UniProt Q6PHR2); conditions: competition binding, % of control; read-out: Percent Control (100 uM Levosimendan)
Outline: as §1

[2] = read-out: Percent Control (10 uM Levosimendan)
[3] = read-out: Percent Control (100 uM Levosimendan)

T2 sequence (Q56UN5 whole entry): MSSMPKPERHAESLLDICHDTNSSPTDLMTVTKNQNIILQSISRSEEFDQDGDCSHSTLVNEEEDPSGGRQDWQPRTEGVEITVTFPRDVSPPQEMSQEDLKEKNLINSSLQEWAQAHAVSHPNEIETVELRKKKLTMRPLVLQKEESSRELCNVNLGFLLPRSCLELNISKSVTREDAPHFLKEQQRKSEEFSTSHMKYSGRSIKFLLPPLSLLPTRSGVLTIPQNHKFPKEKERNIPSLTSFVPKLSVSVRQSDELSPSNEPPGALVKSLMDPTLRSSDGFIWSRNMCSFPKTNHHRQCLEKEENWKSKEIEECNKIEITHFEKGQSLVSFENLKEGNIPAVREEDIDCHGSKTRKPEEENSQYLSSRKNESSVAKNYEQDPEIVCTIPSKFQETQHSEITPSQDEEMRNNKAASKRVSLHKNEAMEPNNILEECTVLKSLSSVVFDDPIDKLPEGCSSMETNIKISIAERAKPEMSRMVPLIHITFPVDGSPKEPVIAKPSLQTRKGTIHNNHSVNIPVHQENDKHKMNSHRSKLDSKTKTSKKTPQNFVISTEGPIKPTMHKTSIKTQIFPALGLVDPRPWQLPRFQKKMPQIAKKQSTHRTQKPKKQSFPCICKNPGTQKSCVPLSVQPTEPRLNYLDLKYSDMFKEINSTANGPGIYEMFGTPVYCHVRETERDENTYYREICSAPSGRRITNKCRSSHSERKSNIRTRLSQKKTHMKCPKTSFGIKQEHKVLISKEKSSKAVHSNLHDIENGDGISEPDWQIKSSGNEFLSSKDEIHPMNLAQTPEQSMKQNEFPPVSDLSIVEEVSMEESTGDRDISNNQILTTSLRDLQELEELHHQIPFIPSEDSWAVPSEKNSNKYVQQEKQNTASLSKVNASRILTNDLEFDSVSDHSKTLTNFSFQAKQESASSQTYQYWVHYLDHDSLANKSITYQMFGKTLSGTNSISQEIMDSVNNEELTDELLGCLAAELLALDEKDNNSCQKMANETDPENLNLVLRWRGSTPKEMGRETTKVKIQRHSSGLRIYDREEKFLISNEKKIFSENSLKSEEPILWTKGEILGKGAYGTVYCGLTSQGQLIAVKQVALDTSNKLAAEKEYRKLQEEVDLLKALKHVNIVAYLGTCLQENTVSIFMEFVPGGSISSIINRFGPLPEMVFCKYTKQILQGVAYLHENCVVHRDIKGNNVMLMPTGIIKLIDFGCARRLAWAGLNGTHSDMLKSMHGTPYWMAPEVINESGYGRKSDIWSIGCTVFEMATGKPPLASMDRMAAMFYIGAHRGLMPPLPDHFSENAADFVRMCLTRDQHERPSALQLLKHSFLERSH
AKT3, sequence (Q9Y243 whole entry): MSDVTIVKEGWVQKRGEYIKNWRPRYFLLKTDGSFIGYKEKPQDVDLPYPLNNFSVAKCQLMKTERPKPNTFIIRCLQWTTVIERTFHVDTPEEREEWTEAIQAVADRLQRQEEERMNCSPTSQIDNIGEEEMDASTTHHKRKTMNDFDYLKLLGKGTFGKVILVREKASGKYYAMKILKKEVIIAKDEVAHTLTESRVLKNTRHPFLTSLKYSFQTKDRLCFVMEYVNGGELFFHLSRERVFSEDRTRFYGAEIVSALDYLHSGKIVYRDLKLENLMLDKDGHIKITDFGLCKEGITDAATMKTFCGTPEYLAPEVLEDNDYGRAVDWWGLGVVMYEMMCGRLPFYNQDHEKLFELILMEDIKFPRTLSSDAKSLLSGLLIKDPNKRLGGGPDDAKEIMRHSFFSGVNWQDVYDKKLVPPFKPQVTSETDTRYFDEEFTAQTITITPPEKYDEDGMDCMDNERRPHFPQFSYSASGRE
MKNK2, sequence (Q9HBH9 whole entry): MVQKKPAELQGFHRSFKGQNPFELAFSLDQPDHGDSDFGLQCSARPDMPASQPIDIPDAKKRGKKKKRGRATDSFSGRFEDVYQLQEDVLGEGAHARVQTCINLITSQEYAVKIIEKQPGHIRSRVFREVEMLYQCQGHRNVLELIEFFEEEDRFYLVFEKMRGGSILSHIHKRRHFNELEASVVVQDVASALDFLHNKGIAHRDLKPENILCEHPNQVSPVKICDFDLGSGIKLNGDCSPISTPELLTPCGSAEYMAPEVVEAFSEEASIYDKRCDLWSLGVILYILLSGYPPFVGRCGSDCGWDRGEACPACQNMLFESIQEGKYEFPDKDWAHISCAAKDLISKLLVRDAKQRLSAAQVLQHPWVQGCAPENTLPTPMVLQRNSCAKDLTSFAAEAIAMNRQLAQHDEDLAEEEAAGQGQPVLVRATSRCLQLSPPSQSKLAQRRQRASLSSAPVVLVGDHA
T1 sequence (P00519 whole entry E255K): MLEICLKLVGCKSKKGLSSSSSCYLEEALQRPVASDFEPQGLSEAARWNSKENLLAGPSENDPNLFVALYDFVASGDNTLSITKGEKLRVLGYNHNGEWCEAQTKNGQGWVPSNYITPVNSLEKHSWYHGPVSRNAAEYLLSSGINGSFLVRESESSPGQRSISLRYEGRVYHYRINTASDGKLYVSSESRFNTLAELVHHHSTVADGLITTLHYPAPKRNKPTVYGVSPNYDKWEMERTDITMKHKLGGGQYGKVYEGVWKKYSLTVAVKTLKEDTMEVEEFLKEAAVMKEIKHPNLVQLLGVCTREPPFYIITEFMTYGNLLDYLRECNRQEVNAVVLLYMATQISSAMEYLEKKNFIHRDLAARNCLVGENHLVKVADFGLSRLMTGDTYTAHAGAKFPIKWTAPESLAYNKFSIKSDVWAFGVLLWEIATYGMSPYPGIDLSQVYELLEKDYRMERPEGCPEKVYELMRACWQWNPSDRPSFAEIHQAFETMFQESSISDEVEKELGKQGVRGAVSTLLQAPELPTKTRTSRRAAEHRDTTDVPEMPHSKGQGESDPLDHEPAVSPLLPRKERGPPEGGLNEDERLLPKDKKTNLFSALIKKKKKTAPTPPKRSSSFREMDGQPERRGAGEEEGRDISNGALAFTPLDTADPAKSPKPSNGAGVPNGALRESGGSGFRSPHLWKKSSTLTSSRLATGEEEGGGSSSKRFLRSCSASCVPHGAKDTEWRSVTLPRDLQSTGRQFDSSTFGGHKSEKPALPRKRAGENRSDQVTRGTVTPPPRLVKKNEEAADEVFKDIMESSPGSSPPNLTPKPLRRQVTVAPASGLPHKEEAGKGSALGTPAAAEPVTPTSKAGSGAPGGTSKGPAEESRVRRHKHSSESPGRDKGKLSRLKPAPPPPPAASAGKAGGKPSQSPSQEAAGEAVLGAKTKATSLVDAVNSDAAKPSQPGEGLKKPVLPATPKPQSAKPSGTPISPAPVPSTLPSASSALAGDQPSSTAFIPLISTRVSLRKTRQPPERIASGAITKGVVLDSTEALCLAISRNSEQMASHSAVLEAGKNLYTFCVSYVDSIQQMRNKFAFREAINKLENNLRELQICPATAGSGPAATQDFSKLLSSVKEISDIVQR
FGFR1, sequence (P11362 whole entry): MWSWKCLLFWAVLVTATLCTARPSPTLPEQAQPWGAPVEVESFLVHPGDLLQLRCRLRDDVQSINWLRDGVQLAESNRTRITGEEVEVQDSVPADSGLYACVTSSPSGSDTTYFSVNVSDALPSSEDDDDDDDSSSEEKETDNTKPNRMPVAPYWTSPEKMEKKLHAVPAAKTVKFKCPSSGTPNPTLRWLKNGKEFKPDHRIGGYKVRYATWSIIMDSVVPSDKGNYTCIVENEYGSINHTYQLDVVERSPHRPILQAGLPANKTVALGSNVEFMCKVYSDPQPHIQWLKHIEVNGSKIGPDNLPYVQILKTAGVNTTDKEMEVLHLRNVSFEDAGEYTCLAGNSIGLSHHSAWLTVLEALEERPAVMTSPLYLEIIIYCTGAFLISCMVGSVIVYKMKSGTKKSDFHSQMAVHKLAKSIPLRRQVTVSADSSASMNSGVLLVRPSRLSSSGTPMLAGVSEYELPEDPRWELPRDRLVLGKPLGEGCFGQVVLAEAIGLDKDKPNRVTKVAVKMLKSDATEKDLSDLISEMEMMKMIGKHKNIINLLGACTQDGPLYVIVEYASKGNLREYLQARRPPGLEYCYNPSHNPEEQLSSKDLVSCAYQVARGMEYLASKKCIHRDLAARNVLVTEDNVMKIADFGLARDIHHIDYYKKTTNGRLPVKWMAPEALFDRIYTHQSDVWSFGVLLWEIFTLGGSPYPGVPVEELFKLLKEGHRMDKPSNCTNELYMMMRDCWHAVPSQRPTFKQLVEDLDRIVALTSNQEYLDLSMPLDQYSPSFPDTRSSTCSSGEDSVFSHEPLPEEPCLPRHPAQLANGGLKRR
CSNK2A2, sequence (P19784 whole entry): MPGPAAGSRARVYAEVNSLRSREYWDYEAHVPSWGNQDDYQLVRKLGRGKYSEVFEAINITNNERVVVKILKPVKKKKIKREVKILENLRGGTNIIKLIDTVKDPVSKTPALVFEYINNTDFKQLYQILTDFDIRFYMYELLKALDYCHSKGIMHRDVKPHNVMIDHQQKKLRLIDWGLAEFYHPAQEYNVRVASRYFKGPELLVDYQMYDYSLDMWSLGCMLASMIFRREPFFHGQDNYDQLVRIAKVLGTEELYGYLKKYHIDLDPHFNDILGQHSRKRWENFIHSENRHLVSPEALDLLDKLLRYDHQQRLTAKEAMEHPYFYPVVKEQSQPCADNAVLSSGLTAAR
T5 sequence (Q9P289 whole entry): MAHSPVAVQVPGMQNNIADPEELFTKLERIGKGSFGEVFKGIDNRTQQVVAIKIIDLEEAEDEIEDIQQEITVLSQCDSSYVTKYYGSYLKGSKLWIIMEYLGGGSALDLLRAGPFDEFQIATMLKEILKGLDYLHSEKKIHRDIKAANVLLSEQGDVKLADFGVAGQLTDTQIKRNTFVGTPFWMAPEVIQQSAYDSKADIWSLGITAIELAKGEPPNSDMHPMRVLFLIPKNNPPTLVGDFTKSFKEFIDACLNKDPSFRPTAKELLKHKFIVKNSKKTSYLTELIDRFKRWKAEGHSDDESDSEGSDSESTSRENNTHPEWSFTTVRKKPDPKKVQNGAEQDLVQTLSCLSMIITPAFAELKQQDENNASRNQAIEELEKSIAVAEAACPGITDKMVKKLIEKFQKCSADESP

Structure (SMILES): C[C@@H]1CC(=O)NN=C1c1ccc(NN=C(C#N)C#N)cc1 [levosimendan]
- remaining binding at 10 µM [1, 2]: 97%
- remaining binding at 100 µM [1, 3]: 34%
- remaining binding at 100 µM (INSR): 76%
- remaining binding at 100 µM (MAP4K3): 95%
- remaining binding at 10 µM (YSK4; [2]): 48%
- remaining binding at 100 µM (YSK4; [3]): 10%
- remaining binding at 100 µM (CSNK2A2): 73%
- remaining binding at 10 µM (FGFR1; [2]): 98%
- remaining binding at 100 µM (FGFR1; [3]): 50%
- remaining binding at 100 µM (SGK2): 90%
- remaining binding at 100 µM (WNK3): 81%
- remaining binding at 100 µM (ERK4): 100%
- remaining binding at 10 µM (MKNK2; [2]): 59%
- remaining binding at 100 µM (MKNK2; [3]): 7.5%
- remaining binding at 100 µM (CAMK2B): 90%
- remaining binding at 100 µM (CLK3): 68%
- remaining binding at 100 µM (PYK2): 93%
- remaining binding at 100 µM (MST4): 71%
- remaining binding at 100 µM (CAMK1B): 100%
- remaining binding at 100 µM (TGFBR2): 89%
- remaining binding at 10 µM (AKT3; [2]): 96%
- remaining binding at 100 µM (AKT3; [3]): 37%
- remaining binding at 100 µM (CDK3): 100%
- remaining binding at 100 µM (ULK3): 77%
